What was measured:
[1] = biological target: T1, Tribbles homolog 2 (Homo sapiens) (UniProt Q92519); experiment: Inhibition of human recombinant Trb2 at 500 nM related to control ULK1
T1 sequence (whole entry): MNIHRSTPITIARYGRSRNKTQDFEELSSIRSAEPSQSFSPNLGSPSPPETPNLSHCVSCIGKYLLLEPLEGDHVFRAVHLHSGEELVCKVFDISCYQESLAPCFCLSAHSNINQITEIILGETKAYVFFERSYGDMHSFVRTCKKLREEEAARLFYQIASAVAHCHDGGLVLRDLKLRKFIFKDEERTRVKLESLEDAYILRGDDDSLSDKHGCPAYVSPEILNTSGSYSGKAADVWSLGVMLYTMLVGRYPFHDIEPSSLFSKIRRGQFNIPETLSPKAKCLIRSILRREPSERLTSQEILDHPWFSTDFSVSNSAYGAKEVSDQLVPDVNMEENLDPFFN

[2] = biological target: T2, Calcium/calmodulin-dependent protein kinase type IV (Homo sapiens) (UniProt Q16566); experiment: Inhibition of human recombinant CaMK4 at 40 nM in presence of ATP by radiometric assay relative to control
T2 sequence (whole entry): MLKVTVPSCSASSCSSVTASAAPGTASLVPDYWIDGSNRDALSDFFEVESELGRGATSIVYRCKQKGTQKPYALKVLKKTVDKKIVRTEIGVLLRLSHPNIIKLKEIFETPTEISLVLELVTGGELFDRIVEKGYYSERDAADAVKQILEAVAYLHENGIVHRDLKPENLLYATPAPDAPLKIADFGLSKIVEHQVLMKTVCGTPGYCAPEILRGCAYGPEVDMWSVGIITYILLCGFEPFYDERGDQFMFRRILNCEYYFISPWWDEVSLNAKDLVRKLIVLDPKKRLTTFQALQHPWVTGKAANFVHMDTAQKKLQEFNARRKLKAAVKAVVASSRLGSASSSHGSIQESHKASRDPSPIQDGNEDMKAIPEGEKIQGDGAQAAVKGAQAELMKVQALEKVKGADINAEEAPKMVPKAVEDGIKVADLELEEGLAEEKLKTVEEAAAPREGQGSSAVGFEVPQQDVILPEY

[3] = biological target: T3, Tyrosine-protein kinase JAK3 (Homo sapiens) (UniProt P52333); experiment: Inhibition of human recombinant JAK3 at 40 nM in presence of ATP by radiometric assay relative to control
T3 sequence (whole entry): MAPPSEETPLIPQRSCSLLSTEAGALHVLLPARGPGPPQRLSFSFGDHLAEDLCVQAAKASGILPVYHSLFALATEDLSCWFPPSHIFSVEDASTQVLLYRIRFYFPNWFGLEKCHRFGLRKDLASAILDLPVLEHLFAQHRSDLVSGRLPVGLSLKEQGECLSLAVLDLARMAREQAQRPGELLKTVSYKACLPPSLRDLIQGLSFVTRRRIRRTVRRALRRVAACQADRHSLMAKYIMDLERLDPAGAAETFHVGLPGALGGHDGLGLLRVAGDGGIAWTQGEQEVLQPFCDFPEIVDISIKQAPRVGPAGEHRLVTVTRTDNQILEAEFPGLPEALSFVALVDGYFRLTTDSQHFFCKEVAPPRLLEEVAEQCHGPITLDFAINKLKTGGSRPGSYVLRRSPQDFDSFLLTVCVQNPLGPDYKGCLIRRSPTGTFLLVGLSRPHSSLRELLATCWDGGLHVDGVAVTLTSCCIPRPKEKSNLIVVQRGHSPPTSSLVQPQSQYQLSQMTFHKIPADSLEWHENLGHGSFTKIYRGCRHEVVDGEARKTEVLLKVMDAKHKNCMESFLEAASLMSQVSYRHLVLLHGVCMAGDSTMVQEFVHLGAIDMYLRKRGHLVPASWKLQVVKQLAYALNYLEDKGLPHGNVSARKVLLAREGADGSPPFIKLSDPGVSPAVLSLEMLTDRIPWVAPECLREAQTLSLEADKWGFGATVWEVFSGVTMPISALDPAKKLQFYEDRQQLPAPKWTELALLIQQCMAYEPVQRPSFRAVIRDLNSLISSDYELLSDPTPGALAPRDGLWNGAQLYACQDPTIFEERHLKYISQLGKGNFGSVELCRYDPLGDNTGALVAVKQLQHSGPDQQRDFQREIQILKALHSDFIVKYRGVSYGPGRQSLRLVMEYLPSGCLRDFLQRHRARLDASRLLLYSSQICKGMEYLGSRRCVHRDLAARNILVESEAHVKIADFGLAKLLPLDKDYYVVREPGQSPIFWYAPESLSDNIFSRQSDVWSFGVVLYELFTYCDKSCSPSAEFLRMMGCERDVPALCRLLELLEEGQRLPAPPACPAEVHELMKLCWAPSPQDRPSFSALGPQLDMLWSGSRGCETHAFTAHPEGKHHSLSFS

[4] = biological target: Serine/threonine-protein kinase PLK1 (Homo sapiens) (UniProt P53350); experiment: Inhibition of human recombinant PLK1 at 40 nM in presence of ATP by radiometric assay relative to control
[5] = biological target: Insulin receptor (Homo sapiens) (UniProt P06213); experiment: Inhibition of human recombinant INSR at 40 nM related to control ULK1
Insulin receptor (Homo sapiens), sequence (P06213 28-758 limits assumed): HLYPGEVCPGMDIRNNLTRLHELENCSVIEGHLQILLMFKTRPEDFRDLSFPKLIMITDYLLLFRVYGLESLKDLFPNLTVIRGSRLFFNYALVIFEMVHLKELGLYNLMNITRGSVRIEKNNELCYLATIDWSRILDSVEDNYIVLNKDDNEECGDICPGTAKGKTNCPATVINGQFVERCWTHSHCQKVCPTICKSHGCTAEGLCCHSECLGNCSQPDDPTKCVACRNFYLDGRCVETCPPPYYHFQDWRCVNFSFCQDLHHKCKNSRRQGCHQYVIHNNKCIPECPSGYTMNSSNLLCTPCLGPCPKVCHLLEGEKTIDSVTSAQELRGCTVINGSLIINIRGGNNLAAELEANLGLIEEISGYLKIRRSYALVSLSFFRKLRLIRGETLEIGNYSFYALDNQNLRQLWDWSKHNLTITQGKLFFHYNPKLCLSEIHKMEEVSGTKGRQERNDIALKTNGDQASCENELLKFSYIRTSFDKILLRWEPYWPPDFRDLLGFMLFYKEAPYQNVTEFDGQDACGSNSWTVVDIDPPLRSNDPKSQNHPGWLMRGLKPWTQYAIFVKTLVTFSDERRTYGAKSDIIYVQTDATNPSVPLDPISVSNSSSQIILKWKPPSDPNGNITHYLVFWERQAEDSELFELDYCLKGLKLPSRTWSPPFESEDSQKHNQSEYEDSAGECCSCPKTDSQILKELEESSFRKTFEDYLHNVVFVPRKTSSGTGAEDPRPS
Insulin receptor (Homo sapiens), sequence (P06213 763-1382 limits assumed): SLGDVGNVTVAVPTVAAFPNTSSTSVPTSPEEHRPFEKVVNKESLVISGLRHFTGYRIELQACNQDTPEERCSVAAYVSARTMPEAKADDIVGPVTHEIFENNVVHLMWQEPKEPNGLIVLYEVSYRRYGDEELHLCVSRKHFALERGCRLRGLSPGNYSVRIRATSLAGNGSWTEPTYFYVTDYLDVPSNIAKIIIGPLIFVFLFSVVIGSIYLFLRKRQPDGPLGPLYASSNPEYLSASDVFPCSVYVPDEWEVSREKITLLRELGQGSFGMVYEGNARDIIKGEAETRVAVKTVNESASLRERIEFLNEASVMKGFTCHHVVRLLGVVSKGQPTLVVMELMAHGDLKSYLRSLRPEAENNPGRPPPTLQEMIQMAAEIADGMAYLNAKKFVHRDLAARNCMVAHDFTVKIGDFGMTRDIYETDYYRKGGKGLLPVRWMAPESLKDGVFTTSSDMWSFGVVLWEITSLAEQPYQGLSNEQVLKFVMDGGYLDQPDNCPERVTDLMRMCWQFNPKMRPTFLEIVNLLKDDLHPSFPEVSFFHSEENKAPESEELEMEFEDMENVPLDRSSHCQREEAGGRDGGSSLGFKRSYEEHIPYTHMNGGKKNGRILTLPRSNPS

Serine/threonine-protein kinase PLK1 (Homo sapiens), sequence (P53350 whole entry): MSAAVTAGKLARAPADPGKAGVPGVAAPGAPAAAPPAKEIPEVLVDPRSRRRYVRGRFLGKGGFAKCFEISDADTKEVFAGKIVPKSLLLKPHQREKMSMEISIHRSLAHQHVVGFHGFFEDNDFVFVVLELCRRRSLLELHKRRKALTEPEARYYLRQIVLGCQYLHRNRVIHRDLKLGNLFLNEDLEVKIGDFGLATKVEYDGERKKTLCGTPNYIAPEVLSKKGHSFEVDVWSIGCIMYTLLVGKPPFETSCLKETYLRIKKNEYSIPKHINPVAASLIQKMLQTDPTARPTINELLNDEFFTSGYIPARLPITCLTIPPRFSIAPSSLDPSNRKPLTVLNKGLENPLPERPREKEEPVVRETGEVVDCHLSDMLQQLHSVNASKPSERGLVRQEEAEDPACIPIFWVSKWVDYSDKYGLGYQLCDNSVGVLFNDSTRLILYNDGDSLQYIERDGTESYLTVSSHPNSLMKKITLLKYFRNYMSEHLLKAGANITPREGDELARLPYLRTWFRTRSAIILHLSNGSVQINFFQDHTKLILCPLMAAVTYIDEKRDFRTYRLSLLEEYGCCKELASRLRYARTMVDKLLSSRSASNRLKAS

fold change (FC) [1]	inhibition [2] [%]	inhibition [3] [%]	inhibition [4] [%]	fold change (FC) [5]	Structure (SMILES)
0					CNC(=O)c1ccccc1Oc1nc(Nc2cc(OC)c(OC)c(OC)c2)ncc1Br
	0	0	0	0	O=C(N[C@@H](C1CC1)C(F)(F)F)c1cc(-c2cnn3cc(-c4ccc(F)cc4)cnc23)cs1
